Results: patent publication US5976797A, “Method for quantifying total mRNA with poly(A)-complementary oligonucleotide-immobilized microtiter plate” (Hitachi Chemical Co., Ltd., priority 1996, dated 1999)

Columns and labels:
U937 cells = experiment: quantification of cytosolic mRNA after PMA-induced differentiation, U937 cells; assay type: cell-based, human
Source text: (§1) We obtained from the respective suppliers human Jurkat, Molt-4, U937, and HL-60 cells (American Type Culture Collection, Rockville, Md.); MICROFAST TRACK™ 228 Kit (mRNA purification kit using oligo-(dT) cellulose, (Invitrogen, San Diego, Calif.); cell culture media, fetal calf serum, (FCS: fatal calf serum), phosphate-buffered saline (PBS: phosphate-buffered saline), rabbit globin mRNA, and vanadyl-ribonucleosidecomplex (VRC: vanadyl-ribonucleoside complex; Gibco-BRL, Baithersburg, Md.); Isolymph (Gallard-Schlesinger, Carle Place, N.Y.); calf thymus DNA (Clontech, Palo Alto, Calif.); DNase (Boehringer Mannheim, Indianapolis, Ind.); RNase (Stratagene, La Jolla, Calif.); and GENEPLATE™ (oligonucleotide-immobilized microplate,(Hitachi Chemical Research Center, Irvine Calif. and Hitachi Chemical Co., Ibaraki, Japan). All other chemicals were purchased from Sigma Chemical Co. (St. Louis, Mis.). Oligonucleotides were synthesized by a synthesizer (Applied Biosystems, San Jose, Calif.), according to the manufacturer's protocol.
(§2) Human Jurkat and Molt-4 cells were grown in RPMI 1640 containing 100 U/mL penicillin, 100 μg/mL streptomycin, and 100 mL/L FCS at 37° C. in CO2 :air, 5:95 (by vol). […] Each cell line was subcultured two to three times a week, and viability was always >90%, as assessed by the exclusion of trypan blue. The number of cells was determined with a hemocytometer. […]

HL-60 cells = experiment: quantification of cytosolic mRNA after PMA-induced differentiation, HL-60 cells; assay type: cell-based, human
Source text: as §1, §2

[1] = 48 h after PMA treatment (160 nmol/L), n=8, P<0.01
[2] = phorbol ester-induced differentiated

CCCCCCCCCCCCCC(=O)O[C@@H]1[C@@H](C)[C@@]2(O)[C@@H](C=C(CO)C[C@]3(O)C(=O)C(C)=C[C@@H]23)[C@@H]2C(C)(C)[C@]12OC(C)=O [PMA, phorbol 12-myristate 13-acetate]
mRNA content in 10^6 differentiated U937 cells (U937 cells; [1]): 145.3±13.9 μg/mL | amount of cytosolic mRNA in differentiated U937 cells (U937 cells; [2]): 145.3±13.9 ng/10^6 cells | mRNA content in 10^6 differentiated HL-60 cells (HL-60 cells; [1]): 164.7±11.6 μg/mL | amount of cytosolic mRNA in differentiated HL-60 cells (HL-60 cells; [2]): 164.7±11.6 ng/10^6 cells
